Experimental data as given in US12565501B2, “Muscarinic acetylcholine M1 receptor antagonists” (Contineum Therapeutics, Inc., priority 2019, dated 2026).

These compounds were tested against T1, human M1 receptor (Homo sapiens, UniProt P11229) (assay: In vitro functional assay of muscarinic acetylcholine receptor activity (aequorin calcium flux, reversal of EC80 acetylcholine response)). Settings: CHO-K1 cells stably expressing human M1 receptor with aequorin; acetylcholine at EC80; calcium flux (luminescence); read-out: M1 IC50.
T1 sequence (P11229 1-460): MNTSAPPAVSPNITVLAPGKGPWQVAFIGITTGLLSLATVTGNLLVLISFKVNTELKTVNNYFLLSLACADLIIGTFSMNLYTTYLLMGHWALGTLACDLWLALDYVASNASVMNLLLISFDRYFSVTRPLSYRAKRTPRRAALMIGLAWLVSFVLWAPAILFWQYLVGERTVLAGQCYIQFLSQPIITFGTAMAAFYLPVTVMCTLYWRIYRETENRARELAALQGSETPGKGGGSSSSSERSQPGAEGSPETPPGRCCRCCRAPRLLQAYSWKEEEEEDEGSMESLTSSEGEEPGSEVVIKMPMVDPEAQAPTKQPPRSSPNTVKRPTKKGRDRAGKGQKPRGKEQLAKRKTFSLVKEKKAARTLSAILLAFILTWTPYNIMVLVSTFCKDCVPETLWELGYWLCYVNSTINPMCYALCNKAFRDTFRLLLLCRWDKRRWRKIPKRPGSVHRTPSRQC
Type: cell-based
Method: CHO-K1 cells stably expressing human M1 receptor with aequorin (Perkin Elmer) were grown in F12 media (Gibco) containing 10% FBS (ATCC), 0.4 mg/mL geneticin (Sigma-Aldrich) and 0.25 mg/mL Zeocin (Invitrogen). Cells were grown as per the manufacturer's protocol. For compound testing, cells were grown to confluency and detached gently with Accutase (Sigma-Aldrich) followed by centrifugation for 5 min at 150× g. Cells were then re-suspended in assay buffer (i.e. DMEM/F-12 HEPES without phenol red (Invitrogen) with 0.1% BSA (Sigma-Aldrich)) at a density of 5×10^6 cells/ml. Under sterile conditions, 5 μM coelenterazine (Invitrogen) was added to the cells, mixed, then incubated at room temperature protected from light, with gentle agitation, for 4 h.
Primary compound plates were prepared in 100% DMSO in opaque 96-well plates (VWR) and serially diluted in half log increments. Secondary compound plates were prepared at 3× concentration in assay buffer. Compounds were added to white, clear bottom tissue culture treated 96-well plates (Fisher Scientific). Coelenterazine-loaded cells were then added at 5×10^5 cells/well.
Compounds and cells were incubated at room temperature for 30 min in the dark. Acetylcholine at the EC80 concentration was added and calcium flux measured using a FlexStation 3 (Molecular Devices). Sigmoidal dose-response curves were generated by measuring luminescence over 40 sec and calculating the area under the curve. Dose response curves and IC50 values were generated using Prism (GraphPad). Compounds were tested at a final concentration range of 100 μM to […] in 0.1% DMSO.

How did the IC50 turn out when N#Cc1ccc(N2[C@@H]3CC[C@H]2CN(C(=O)CCNC2(c4ccc(Cl)c(F)c4)CC2)C3)nc1 [Example 34, 6-(3-(3-((1-(4-chloro-3-fluorophenyl)cyclopropyl)amino)propanoyl)-3,8-diazabicyclo[3.2.1]octan-8-yl)nicotinonitrile] was run?
The IC50 was under 10 nM.

Which IC50 does the source give for C[C@@H](OCC(=O)N1C[C@H]2CC[C@@H](C1)N2c1ccc(C#N)cn1)c1ccccc1 [Example 178, 6-(3-(2-((R)-1-phenylethoxy)acetyl)-3,8-diazabicyclo[3.2.1]octan-8-yl)nicotinonitrile] here?
Its IC50 is 100 to 1000 nM.

CC(NCCC(=O)N1C[C@H]2CC[C@@H](C1)N2c1ccc(C#N)cn1)c1cccc2ncsc12 (mixture of isomers) [Example 51, 6-(3-(3-((1-(benzo[d]thiazol-7-yl)ethyl)amino)propanoyl)-3,8-diazabicyclo[3.2.1]octan-8-yl)nicotinonitrile] was tested. Which IC50 did it give?
The IC50 was 10 to 100 nM.

With N#Cc1ccc(N2C3CCC2CN(C(=O)COC2(c4ncccn4)CCC2)C3)nc1 [Example 273, 6-(3-(2-(1-(pyrimidin-2-yl)cyclobutoxy)acetyl)-3,8-diazabicyclo[3.2.1]octan-8-yl)nicotinonitrile] as the compound, how does the IC50 read?
The IC50 was 100 to 1000 nM.

How did the IC50 turn out when COc1cc(C(F)(F)COCC(=O)N2CC3CCC(C2)N3c2ccc(C#N)cn2)ccn1 [Example 277, 6-(3-(2-(2,2-difluoro-2-(2-methoxypyridin-4-yl)ethoxy)acetyl)-3,8-diazabicyclo[3.2.1]octan-8-yl)nicotinonitrile] was run?
The IC50 was 100 to 1000 nM.

Cc1csc(C2(OCC(=O)N3CC4CCC(C3)N4c3ccc(C#N)cn3)CCC2)n1 [Example 266, 6-(3-(2-(1-(4-methylthiazol-2-yl)cyclobutoxy)acetyl)-3,8-diazabicyclo[3.2.1]octan-8-yl)nicotinonitrile] was tested. Which IC50 did it give?
Its IC50 is 100 to 1000 nM.

CC(c1ccc(F)cc1)S(=O)(=O)CCC(=O)N1CC2CCC(C1)N2c1ccc(C#N)cn1 (racemic) [Example 175, 6-(3-(3-((1-(4-fluorophenyl)ethyl)sulfonyl)propanoyl)-3,8-diazabicyclo[3.2.1]octan-8-yl) nicotinonitrile] was tested. Which IC50 did it give?
The IC50 was over 1000 nM.

How did the IC50 turn out when C[C@H](NCCC(=O)N1C[C@H]2CC[C@@H](C1)N2c1ccc(C#N)cn1)c1ccc(F)c(F)c1 [Example 8, 6-(3-(3-(((S)-1-(3,4-difluorophenyl)ethyl)amino)propanoyl)-3,8-diazabicyclo[3.2.1]octan-8-yl)nicotinonitrile] was run?
The IC50 was 100 to 1000 nM.

For CC(OCC(=O)N1CC2CCC(C1)N2c1ccc(C#N)cn1)c1cccc2nccnc12 (racemic) [Example 193, 6-(3-(2-(1-(quinoxalin-5-yl)ethoxy)acetyl)-3,8-diazabicyclo[3.2.1]octan-8-yl)nicotinonitrile], which IC50 is on record?
Its IC50 is under 10 nM.

How did the IC50 turn out when COc1cc(C2(OCC(=O)N3CC4CCC(C3)N4c3ccc(C#N)cn3)COC2)ccn1 [Example 244, 6-(3-(2-((3-(2-methoxypyridin-4-yl)oxetan-3-yl)oxy)acetyl)-3,8-diazabicyclo[3.2.1]octan-8-yl)nicotinonitrile] was run?
The IC50 was 1000 to 10000 nM.

For CC(COCC(=O)N1CC2CCC(C1)N2c1ccc(C#N)cn1)c1ccccc1 (stereo in doubt) [Example 185, 6-(3-(2-((S)-2-phenylpropoxy)acetyl)-3,8-diazabicyclo[3.2.1]octan-8-yl)nicotinonitrile], which IC50 is on record?
Its IC50 is 100 to 1000 nM.

Which IC50 does the source give for N#Cc1ccc(N2C3CCC2CN(C(=O)COC2CCc4cc(F)ccc42)C3)nc1 (racemic) [Example 184, 6-(3-(2-((5-fluoro-2,3-dihydro-1H-inden-1-yl)oxy)acetyl)-3,8-diazabicyclo[3.2.1]octan-8-yl)nicotinonitrile] here?
Its IC50 is 10 to 100 nM.

For CC(c1ccc(F)c(F)c1)N1CC(C(=O)N2CC3CCC(C2)N3c2ccc(C#N)cn2)C1 (racemic) [Example 137, 6-(3-(1-(1-(3,4-difluorophenyl)ethyl)azetidine-3-carbonyl)-3,8-diazabicyclo[3.2.1]octan-8-yl)nicotinonitrile], which IC50 is on record?
Its IC50 is 100 to 1000 nM.

With COc1cc(C(F)(F)CCC(=O)N2C[C@@H]3CC[C@H]2CN3c2ccc(C#N)cn2)ccn1 [Example 155, 6-((1S,4S)-5-(4,4-difluoro-4-(2-methoxypyridin-4-yl)butanoyl)-2,5-diazabicyclo[2.2.2]octan-2-yl)nicotinonitrile] as the compound, how does the IC50 read?
Its IC50 is 10 to 100 nM.

With COc1ccc(F)cc1C1(NCC(=O)N2CC3CCC(C2)N3c2ccc(C#N)cn2)CC1 [Example 76, 6-(3-((1-(5-fluoro-2-methoxyphenyl)cyclopropyl)glycyl)-3,8-diazabicyclo[3.2.1]octan-8-yl)nicotinonitrile] as the compound, how does the IC50 read?
Its IC50 is under 10 nM.

For N#Cc1ccc(N2C3CCC2CN(C(=O)COC2(c4ccc(F)c(F)c4)CC2)C3)nn1 [Example 280, 6-(3-(2-(1-(3,4-difluorophenyl)cyclopropoxy)acetyl)-3,8-diazabicyclo[3.2.1]octan-8-yl)pyridazine-3-carbonitrile], which IC50 is on record?
Its IC50 is 100 to 1000 nM.

COc1ccccc1C1(NCC(=O)N2CC3CCC(C2)N3c2ccc(C#N)cn2)CC1 [Example 97, 6-(3-((1-(2-methoxyphenyl)cyclopropyl)glycyl)-3,8-diazabicyclo[3.2.1]octan-8-yl)nicotinonitrile] was tested. Which IC50 did it give?
The IC50 was under 10 nM.

With COc1cccc([C@H](C)NCC(=O)N2CC3CCC(C2)N3c2ccc(C#N)cn2)c1 [Example 92, 6-(3-(((S)-1-(3-methoxyphenyl)ethyl)glycyl)-3,8-diazabicyclo[3.2.1]octan-8-yl)nicotinonitrile] as the compound, how does the IC50 read?
Its IC50 is under 10 nM.

For N#Cc1ccc(N2C3CCC2CN(C(=O)CN2CCC2c2ccc(F)cc2)C3)nc1 (racemic) [Example 104], which IC50 is on record?
The IC50 was over 1000 nM.

With N#Cc1ccc(N2C3CCC2CN(C(=O)CCOC(c2cccc4ncnn24)C2CC2)C3)nc1 (racemic) [Example 309, 6-(3-(3-([1,2,4]triazolo[1,5-a]pyridin-5-yl(cyclopropyl)methoxy)propanoyl)-3,8-diazabicyclo[3.2.1]octan-8-yl)nicotinonitrile] as the compound, how does the IC50 read?
Its IC50 is under 10 nM.

How did the IC50 turn out when COc1cccc(C(F)(F)CCC(=O)N2CC3CCC(C2)N3c2ccc(C#N)cn2)n1 [Example 145, 6-(3-(4,4-difluoro-4-(6-methoxypyridin-2-yl)butanoyl)-3,8-diazabicyclo[3.2.1]octan-8-yl)nicotinonitrile] was run?
Its IC50 is under 10 nM.

For N#Cc1ccc(N2[C@@H]3CC[C@H]2CN(C(=O)CCNC2(c4ccc(F)nc4)CC2)C3)nc1 [Example 28, 6-(3-(3-((1-(6-fluoropyridin-3-yl)cyclopropyl)amino)propanoyl)-3,8-diazabicyclo[3.2.1]octan-8-yl)nicotinonitrile], which IC50 is on record?
The IC50 was under 10 nM.

With N#Cc1ccc(N2[C@@H]3CC[C@H]2CN(C(=O)CCNC2(c4ccc(F)c(F)c4)CC2)C3)nn1 [Example 42, 6-(3-(3-((1-(3,4-difluorophenyl)cyclopropyl)amino)propanoyl)-3,8-diazabicyclo[3.2.1]octan-8-yl)pyridazine-3-carbonitrile] as the compound, how does the IC50 read?
The IC50 was under 10 nM.

CC(OCC(=O)N1CC2CCC(C1)N2c1ccc(C#N)cn1)c1cccn2ncnc12 (racemic) [Example 196, 6-(3-(2-(1-([1,2,4]triazolo[1,5-a]pyridin-8-yl)ethoxy)acetyl)-3,8-diazabicyclo[3.2.1]octan-8-yl)nicotinonitrile] was tested. Which IC50 did it give?
Its IC50 is under 10 nM.

CC(NCCC(=O)N1C[C@H]2CC[C@@H](C1)N2c1ccc(C#N)cn1)c1c(F)ccc2nccn12 (mixture of isomers) [Example 53, 6-(3-(3-((1-(6-fluoroimidazo[1,2-a]pyridin-5-yl)ethyl)amino)propanoyl)-3,8-diazabicyclo[3.2.1]octan-8-yl)nicotinonitrile] was tested. Which IC50 did it give?
Its IC50 is 10 to 100 nM.
